In the NIST ThermoML archive (doi:10.1016/j.fluid.2015.07.010):

Conditions: for kinematic viscosity: Liquid, Scattered Light Surfacing

CCF [fluoroethane]
Conditions	surface tension liquid-gas [mN/m]
244.13 K, Capillary rise	16.72
246.15 K, Capillary rise	16.42
248.13 K, Capillary rise	16.18
250.05 K, Capillary rise	15.87
252.1 K, Capillary rise	15.59
254.15 K, Capillary rise	15.26
256.05 K, Capillary rise	14.97
258.13 K, Capillary rise	14.69
260.05 K, Capillary rise	14.38
262.08 K, Capillary rise	14.13
264.13 K, Capillary rise	13.85
266.1 K, Capillary rise	13.58
268.08 K, Capillary rise	13.27
270.1 K, Capillary rise	13
272.04 K, Capillary rise	12.69
274.1 K, Capillary rise	12.4
276.03 K, Capillary rise	12.08
278.14 K, Capillary rise	11.81
280.14 K, Capillary rise	11.54
282.14 K, Capillary rise	11.25
284.14 K, Capillary rise	10.95
286.12 K, Capillary rise	10.67
288.13 K, Capillary rise	10.38
290.12 K, Capillary rise	10.1
292.13 K, Capillary rise	9.82
293.43 K, Surface Light Scattering	9.46
294.12 K, Capillary rise	9.53
296.12 K, Capillary rise	9.24
298.1 K, Capillary rise	8.96
300.11 K, Capillary rise	8.66
302.17 K, Capillary rise	8.37
303.14 K, Surface Light Scattering	8.16
304.11 K, Capillary rise	8.08
305.13 K, Capillary rise	7.95
306.12 K, Capillary rise	7.83
308.12 K, Capillary rise	7.54
310.18 K, Capillary rise	7.27
312.17 K, Capillary rise	7
313.11 K, Surface Light Scattering	6.78
314.18 K, Capillary rise	6.71
316.17 K, Capillary rise	6.44
318.16 K, Capillary rise	6.17
320.17 K, Capillary rise	5.86
322.18 K, Capillary rise	5.61
323.14 K, Surface Light Scattering	5.46
324.18 K, Capillary rise	5.39
326.17 K, Capillary rise	5.08
328.16 K, Capillary rise	4.84
330.17 K, Capillary rise	4.6
332.17 K, Capillary rise	4.33
333.15 K, Surface Light Scattering	4.2
334.16 K, Capillary rise	4.1
343.14 K, Surface Light Scattering	3
353.12 K, Surface Light Scattering	1.89
363.11 K, Surface Light Scattering	0.92
373.09 K, Surface Light Scattering	0.13

Conditions	kinematic viscosity [m2/s]
293.43 K	1.81e-07
303.14 K	1.66e-07
313.11 K	1.52e-07
323.14 K	1.42e-07
333.15 K	1.32e-07
343.14 K	1.22e-07
353.12 K	1.12e-07
363.11 K	1.03e-07
373.09 K	8.97e-08
